One may read the inhibition as the change of the read-out against control, counted positive when it falls. Read a high inhibition as a response far below the control.

Four molecules from patent US8946257B2, “N-containing heteroaryl derivatives as JAK3 kinase inhibitors” (Vectura Limited, priority 2009, dated 2015) can be followed below.

The structures appear in SMILES notation. A value given as a limit tells only on which side of the number the result lay.

Assay [1] addresses T1, catalytic domain of human JAK2 (Homo sapiens, UniProt O60674).
T1 construct: the catalytic domain of human JAK2
Put plainly: Inhibition of JAK2 activity (Z'-Lyte Kinase Assay kit-Tyr 6 Peptide). Type of assay: biochemical. Here is the method:
The inhibition of JAK2 kinase activity was determined in 384-well assay microplates using the Z′-Lyte® Kinase Assay kit-Tyr 6 Peptide kit, supplied by Invitrogen (Ref: PV4122), following the manufacturer's instructions.
(§1) In a final volume of 10 μL per well, 2.5 μL of the product to be tested dissolved in 4% DMSO (final concentration of the product to be tested, 0.1-10000 nM) was incubated with 0.5 μg/well of the catalytic domain of human JAK2, 2 μM of the substrate peptide Z′-Lyte® Tyr 6 and 16 μM of ATP; all components were dissolved in 50 mM pH 7.5 Hepes buffer, 10 mM Magnesium chloride (II), 1 mM EGTA and 0.01% Brij® 35. The reaction was started by the addition of said 16 μM ATP; after incubation for 1 hour at 25° C., 5 μL of A Z′-Lyte® Tyr 6 development reagent was added and the mixture was incubated for 1 hour at 25° C. Phosphorylation was then quantified in each well using a Safire2® fluorescence microplate reader from Tecan.

Assay [2] addresses catalytic domain of human JAK3 (Homo sapiens, UniProt P52333). Put plainly: Inhibition of JAK3 activity (Z'-Lyte Kinase Assay kit-Tyr 6 Peptide). Type of assay: biochemical. Here is the method:
The inhibition of JAK3 kinase activity was determined in 384-well assay microplates using the Z′-Lyte® Kinase Assay kit-Tyr 6 Peptide kit, supplied by Invitrogan (Ref: PV4122), following the manufacturer's instructions.
as §1, with “0.3 μg/mL” for “0.5 μg/well”, “JAK3 (amino acid sequence […]),” for “JAK2,”, “4” for “16”

Sequence of catalytic domain of human JAK3 (P52333 781-1124 limits assumed): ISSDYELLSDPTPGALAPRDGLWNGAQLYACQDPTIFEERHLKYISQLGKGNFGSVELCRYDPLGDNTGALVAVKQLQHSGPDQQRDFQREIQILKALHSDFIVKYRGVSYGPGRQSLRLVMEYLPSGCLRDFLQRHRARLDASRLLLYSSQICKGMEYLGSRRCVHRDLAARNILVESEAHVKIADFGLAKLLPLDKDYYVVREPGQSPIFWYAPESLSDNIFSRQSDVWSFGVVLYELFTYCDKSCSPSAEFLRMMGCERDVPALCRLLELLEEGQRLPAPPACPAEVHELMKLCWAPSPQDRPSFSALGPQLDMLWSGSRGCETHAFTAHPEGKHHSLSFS
T1 sequence (O60674 849-1124 limits assumed): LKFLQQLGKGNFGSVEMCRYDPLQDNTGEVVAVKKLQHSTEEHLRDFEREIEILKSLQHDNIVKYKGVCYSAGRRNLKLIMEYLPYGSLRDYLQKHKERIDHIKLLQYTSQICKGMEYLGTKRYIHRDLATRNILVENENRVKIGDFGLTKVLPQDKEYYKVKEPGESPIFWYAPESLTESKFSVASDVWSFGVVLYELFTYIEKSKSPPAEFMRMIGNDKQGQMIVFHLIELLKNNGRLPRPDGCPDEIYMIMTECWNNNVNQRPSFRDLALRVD

`Cc1ccn2ncc(-c3ncc4ncn([C@H]5CCCN(C(=O)CC#N)C5)c4n3)c2c1` [Example 29, (S)-3-(3-(2-(5-Methylpyrazolo[1,5-a]pyridin-3-yl)-9H-purin-9-yl)piperidin-1-yl)-3-oxopropanenitrile]: the inhibition at 1 µM in assay [1] and in assay [2] was greater than 50% in each case.

As to `CC(=O)OCn1c(=O)n([C@H]2CCCN(C(=O)CC#N)C2)c2nc(-c3cnn4ccccc34)ncc21` [Example 31, (S)-(9-(1-(2-Cyanoacetyl)piperidin-3-yl)-8-oxo-2-(pyrazolo[1,5-a]pyridin-3-yl)-8,9-dihydro-7H-purin-7-yl)methyl acetate], the inhibition at 1 µM in assay [1] and in assay [2] was greater than 50% each time.

With `Nc1nc2cnc(-c3cnn4ccccc34)nc2n1C1CCOCC1` [Example 33, 2-(Pyrazolo[1,5-a]pyridin-3-yl)-9-(tetrahydro-2H-pyran-4-yl)-9H-purin-8-amine], the inhibition at 1 µM in assay [1] and in assay [2] was greater than 50% in each case.

With `O=C1CCCN1c1nc2cnc(-c3cnn4ccccc34)nc2n1C1CCOCC1` [Example 34, 1-(2-(Pyrazolo[1,5-a]pyridin-3-yl)-9-(tetrahydro-2H-pyran-4-yl)-9H-purin-8-yl)pyrrolidin-2-one], the inhibition at 1 µM in assay [1] and in assay [2] was greater than 50% throughout.
